Source: BindingDB's records for patent US11547697 (Millennium Pharmaceuticals, 2023)

target: Phosphatidylinositol 4,5-bisphosphate 3-kinase catalytic subunit beta isoform (Homo sapiens, UniProt P42338); experiment: Inhibition Assay of PI3K
Sequence (P42338 whole entry, canonical isoform): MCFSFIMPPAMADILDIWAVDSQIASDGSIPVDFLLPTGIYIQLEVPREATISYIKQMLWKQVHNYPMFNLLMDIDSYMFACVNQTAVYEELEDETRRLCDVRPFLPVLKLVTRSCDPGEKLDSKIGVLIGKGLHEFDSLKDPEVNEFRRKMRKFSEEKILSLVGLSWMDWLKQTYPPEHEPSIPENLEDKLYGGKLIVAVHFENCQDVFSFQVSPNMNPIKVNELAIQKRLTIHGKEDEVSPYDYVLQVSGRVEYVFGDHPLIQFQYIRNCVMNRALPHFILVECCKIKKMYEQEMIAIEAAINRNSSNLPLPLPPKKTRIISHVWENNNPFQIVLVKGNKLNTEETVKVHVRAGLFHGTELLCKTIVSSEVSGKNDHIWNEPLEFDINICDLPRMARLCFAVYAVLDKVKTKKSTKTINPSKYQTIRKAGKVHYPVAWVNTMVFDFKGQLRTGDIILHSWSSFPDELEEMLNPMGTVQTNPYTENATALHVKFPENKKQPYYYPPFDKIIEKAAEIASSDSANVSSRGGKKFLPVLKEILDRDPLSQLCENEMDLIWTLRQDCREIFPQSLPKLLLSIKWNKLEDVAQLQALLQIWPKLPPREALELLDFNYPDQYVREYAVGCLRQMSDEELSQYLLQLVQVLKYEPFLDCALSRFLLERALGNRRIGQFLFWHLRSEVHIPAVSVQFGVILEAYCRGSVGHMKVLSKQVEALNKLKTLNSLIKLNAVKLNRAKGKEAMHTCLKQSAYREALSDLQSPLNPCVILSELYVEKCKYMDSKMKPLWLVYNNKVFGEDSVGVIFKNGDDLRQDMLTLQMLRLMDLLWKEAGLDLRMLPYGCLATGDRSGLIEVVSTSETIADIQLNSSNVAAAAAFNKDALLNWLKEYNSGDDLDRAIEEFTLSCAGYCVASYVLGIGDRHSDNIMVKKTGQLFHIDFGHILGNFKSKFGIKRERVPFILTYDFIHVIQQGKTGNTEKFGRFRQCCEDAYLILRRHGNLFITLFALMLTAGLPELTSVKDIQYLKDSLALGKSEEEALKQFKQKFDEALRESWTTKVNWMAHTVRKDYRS

IC50 [µM] | SMILES
> 10 | Nc1nc2cc(-c3ccc4ncc(C(=O)N5CCN(CCO)CC5)n4c3)ccc2o1 [US11547697, Compound 148]
> 10 | Nc1nc2cc(-c3cc4nccc(-c5ccncc5)c4s3)ccc2o1 [US11547697, Compound 14]
> 10 | Nc1nc2cc(-c3ccc4ncc(N5CC(N6CCOCC6)C5)nc4c3)ccc2o1 [US11547697, Compound 273]
> 10 | Nc1nc2cc(-c3ccc4ncc(N5CCNCC5=O)nc4c3)ccc2o1 [US11547697, Compound 389]
> 10 | CNc1noc2cc(-c3ccc4ncc(C(=O)N5CCOCC5)n4c3)ccc12 [US11547697, Compound 486]
> 10 | Nc1nc2cc(-c3ccc4ncc(C(=O)N5CC5)n4c3)ccc2o1 [US11547697, Compound 340]
> 10 | Nc1nc2cc(-c3ccc4ncc(N5CCN(C(=O)C6(N)CC6)CC5)nc4c3)ccc2o1 [US11547697, Compound 226]
> 10 | NC(=O)[C@@H]1CCCN1C(=O)c1cnc2ccc(-c3ccc4oc(N)nc4c3)cn12 [US11547697, Compound 259]
> 10 | Nc1nc2cc(-c3ccc4ncc(C(=O)N5CCC(N6CC(F)(F)C6)C5)n4c3)ccc2o1 (stereo not given) [US11547697, Compound 498]
> 10 | Nc1nc2cc(-c3ccc4ncc(C(=O)N5CC(N6CCC(F)(F)C6)C5)n4c3)ccc2o1 [US11547697, Compound 502]
> 10 | CC(=O)Nc1ncc(-c2ccc3oc(N)nc3c2)s1 [US11547697, Compound 235]
> 10 | COc1ncc(-c2ccc3ncc(C(=O)N4CCOCC4)n3c2)c2cn[nH]c12 [US11547697, Compound 517]
> 10 | COc1ncc(-c2ccc3ncc(C(=O)N4CCOCC4)n3c2)cc1NS(=O)(=O)c1ccccc1 [US11547697, Compound 420]
> 10 | Nc1nc2cc(-c3ccc4ncc(C(=O)N5CC(n6cccn6)C5)n4c3)ccc2o1 [US11547697, Compound 479]
> 10 | Cc1ccc(NC(=O)c2cnc3ccc(-c4ccc5oc(N)nc5c4)cn23)cn1 [US11547697, Compound 294]
> 10 | O=C(c1cnc2ccc(-c3cccc(NS(=O)(=O)c4ccc(F)cc4F)c3)cn12)N1CCOCC1 [US11547697, Compound 454]
> 10 | Nc1nc2cc(-c3ccc4ncc(C(=O)N5CC[C@@H](n6cccn6)C5)n4c3)ccc2o1 [US11547697, Compound 477]
> 10 | O=C(c1cnc2ccc(-c3cncc(NS(=O)(=O)c4ccc(F)cc4F)c3)cn12)N1CCOCC1 [US11547697, Compound 425]
> 10 | Nc1nc2cc(-c3ccc4ncc(C(=O)N5CC[C@@H](F)C5)n4c3)ccc2o1 [US11547697, Compound 475]
> 10 | Nc1nc2cc(-c3ccc4ncc(N5CC(N6CCC(O)CC6)C5)nc4c3)ccc2o1 [US11547697, Compound 341]
> 10 | C[C@H]1CCCN1C(=O)c1cnc2ccc(-c3ccc4oc(N)nc4c3)cn12 [US11547697, Compound 482]
> 10 | Nc1ccc2cc(-c3ccc4nccc(-c5ccncc5)c4c3)ccc2n1 [US11547697, Compound 5]
> 10 | CS(=O)(=O)N1CCN(C(=O)c2cnc3ccc(-c4ccc5oc(N)nc5c4)cn23)CC1 [US11547697, Compound 112]
> 10 | Nc1nc2ccc(-c3ccc4ncc(C(=O)N5CCOCC5)n4c3)cc2s1 [US11547697, Compound 125]
> 10 | Nc1nc2cc(-c3ccc4ncc(C(=O)Nc5cccnc5)n4c3)ccc2o1 [US11547697, Compound 190]
> 10 | O=C(c1cnc2ccc(-c3cncc(NS(=O)(=O)c4ccccc4)c3)cn12)N1CCOCC1 [US11547697, Compound 424]

SMILES | IC50 [µM]
Nc1nc2cc(-c3ccc4ncc(C(=O)N5C6CCC5COC6)n4c3)ccc2o1 [US11547697, Compound 480] | > 10
Nc1ncnc2ccc(-c3ccc4nccc(-c5ccncc5)c4c3)cc12 [US11547697, Compound 8] | > 10

target: T1, Phosphatidylinositol 4,5-bisphosphate 3-kinase catalytic subunit delta isoform (Homo sapiens, UniProt O00329); experiment: Inhibition Assay of PI3K
T1 sequence (O00329 whole entry): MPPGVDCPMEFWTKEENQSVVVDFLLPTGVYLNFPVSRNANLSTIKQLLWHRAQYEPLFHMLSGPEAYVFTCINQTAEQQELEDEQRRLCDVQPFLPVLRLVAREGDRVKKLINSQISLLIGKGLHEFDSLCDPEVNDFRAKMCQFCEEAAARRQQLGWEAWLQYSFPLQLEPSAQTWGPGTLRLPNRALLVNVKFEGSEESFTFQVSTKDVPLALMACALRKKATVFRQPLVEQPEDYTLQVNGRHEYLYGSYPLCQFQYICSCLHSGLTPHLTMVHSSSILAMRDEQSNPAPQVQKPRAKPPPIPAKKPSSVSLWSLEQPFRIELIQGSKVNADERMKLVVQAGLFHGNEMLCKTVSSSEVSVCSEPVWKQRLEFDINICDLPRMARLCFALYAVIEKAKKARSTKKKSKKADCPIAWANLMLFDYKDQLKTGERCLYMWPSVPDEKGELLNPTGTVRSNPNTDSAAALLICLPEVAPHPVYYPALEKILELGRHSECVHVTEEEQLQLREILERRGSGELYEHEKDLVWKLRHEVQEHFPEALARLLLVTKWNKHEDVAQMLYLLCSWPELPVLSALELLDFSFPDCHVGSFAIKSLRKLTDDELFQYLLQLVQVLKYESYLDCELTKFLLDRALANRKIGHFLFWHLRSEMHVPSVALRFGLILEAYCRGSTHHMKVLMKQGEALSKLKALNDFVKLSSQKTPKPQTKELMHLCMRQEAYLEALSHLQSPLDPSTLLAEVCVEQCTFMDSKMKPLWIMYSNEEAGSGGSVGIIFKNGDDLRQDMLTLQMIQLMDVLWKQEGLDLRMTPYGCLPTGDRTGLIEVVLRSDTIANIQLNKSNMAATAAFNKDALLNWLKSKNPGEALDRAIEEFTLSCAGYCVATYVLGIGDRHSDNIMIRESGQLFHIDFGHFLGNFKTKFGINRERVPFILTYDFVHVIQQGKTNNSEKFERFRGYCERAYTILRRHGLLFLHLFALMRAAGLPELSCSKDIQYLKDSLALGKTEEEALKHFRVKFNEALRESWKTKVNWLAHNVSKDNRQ

IC50 [µM] | SMILES
> 10 | Nc1nc2cc(-c3ccc4ncc(C(=O)N5CCN(CCO)CC5)n4c3)ccc2o1 [US11547697, Compound 148]
> 10 | Nc1nc2cc(-c3cc4nccc(-c5ccncc5)c4s3)ccc2o1 [US11547697, Compound 14]
> 10 | Nc1nc2cc(-c3ccc4ncc(N5CC(N6CCOCC6)C5)nc4c3)ccc2o1 [US11547697, Compound 273]
> 10 | Nc1nc2cc(-c3ccc4ncc(N5CCNCC5=O)nc4c3)ccc2o1 [US11547697, Compound 389]
> 10 | CNc1noc2cc(-c3ccc4ncc(C(=O)N5CCOCC5)n4c3)ccc12 [US11547697, Compound 486]
> 10 | Nc1nc2cc(-c3ccc4ncc(C(=O)N5CC5)n4c3)ccc2o1 [US11547697, Compound 340]
> 10 | NC(=O)[C@@H]1CCCN1C(=O)c1cnc2ccc(-c3ccc4oc(N)nc4c3)cn12 [US11547697, Compound 259]
> 10 | Nc1nc2cc(-c3ccc4ncc(C(=O)N5CCC(N6CC(F)(F)C6)C5)n4c3)ccc2o1 (stereo not given) [US11547697, Compound 498]
> 10 | Nc1nc2cc(-c3ccn4ncc(C(=O)N5CCOCC5)c4c3)ccc2o1 [US11547697, Compound 347]
> 10 | Cc1cc(-c2ccc3ncc(C(=O)N4CCOCC4)n3c2)cc2nc(N)oc12 [US11547697, Compound 364]
> 10 | Nc1nc2cc(-c3ccc4ncc(-c5cnn(CCO)c5)nc4c3)ccc2o1 [US11547697, Compound 108]
> 10 | CC(=O)Nc1n[nH]c2cc(-c3ccc4oc(N)nc4c3)ccc12 [US11547697, Compound 430]
> 10 | CN1CCN(c2cnc3ccc(-c4ccc5nc(N)sc5c4)cc3n2)CC1 [US11547697, Compound 115]
> 10 | Nc1nc2cc(-c3ccc4ncc(N5CCOCC5)nc4c3)ccc2o1 [US11547697, Compound 64]
> 10 | Cc1nc2ccc(-c3ccc4oc(N)nc4c3)nn2c1-c1ccncc1 [US11547697, Compound 56]
> 10 | CC(=O)Nc1nc2cc(-c3cc(F)c4oc(N)nc4c3)ccc2s1 [US11547697, Compound 435]

IC50 [µM] | SMILES
> 10 | CN1CCN(C(=O)c2cnc3ccc(-c4ccc5nc(N)oc5c4)cn23)CC1 [US11547697, Compound 145]
> 10 | Cc1cc(-c2ccc3nc(N)oc3c2)cn2c(C(=O)N3CCOCC3)cnc12 [US11547697, Compound 449]
> 10 | COCCn1cnc2ccc(-c3ccc4oc(N)nc4c3)cc2c1=O [US11547697, Compound 272]
> 10 | CN1CCCN(c2cnc3ccc(-c4ccc5oc(N)nc5c4)cc3n2)CC1 [US11547697, Compound 136]
> 10 | Nc1nc2cc(-c3ccc4ncn(CCO)c(=O)c4c3)ccc2o1 [US11547697, Compound 184]
> 10 | Nc1nc2ccc(-c3ccc4ncc(N5CCOCC5)nc4c3)cc2o1 [US11547697, Compound 117]
> 10 | Nc1nc2cc(-c3ccc4c(N)n[nH]c4c3)ccc2o1 [US11547697, Compound 428]
> 10 | CN1CCN(c2cnc3ccc(-c4ccc5sc(N)nc5c4)cc3n2)CC1 [US11547697, Compound 127]
> 10 | Nc1nc2cc(-c3cc(F)c4oc(N)nc4c3)ccc2o1 [US11547697, Compound 432]
> 10 | Nc1nc2cc(-c3ccc4ncc(N5CC(n6cccn6)C5)nc4c3)ccc2o1 [US11547697, Compound 318]
> 10 | Nc1nc2cc(-c3ccc4ncc(N5CCOCC5)n4n3)ccc2o1 [US11547697, Compound 57]
> 10 | CN(C)C1CN(c2cnc3ccc(-c4ccc5oc(N)nc5c4)cc3n2)C1 [US11547697, Compound 366]
> 10 | Nc1nc2cc(-c3ccc4nnc(-c5ccncc5)n4c3)ccc2o1 [US11547697, Compound 229]
> 10 | Nc1nc2cc(-c3ccn4ncc(C(=O)N5CCCC5)c4c3)ccc2o1 [US11547697, Compound 346]
> 10 | C[C@H]1COCCN1C(=O)c1cnc2ccc(-c3ccc4oc(N)nc4c3)cn12 [US11547697, Compound 483]

SMILES | IC50 [µM]
Nc1nc2cc(-c3ccc4ncc(N5CCNC(=O)C5)nc4c3)ccc2o1 [US11547697, Compound 135] | > 10
